In US9938261B2, “Heterocyclic compounds and methods of use thereof” (AMBIT BIOSCIENCES CORPORATION, priority 2011, dated 2018):
Like-named read-outs stand apart in the source and are kept apart here.

Key:
CSF1R = CSF1R (Homo sapiens, UniProt P07333); assay: Competition binding assay, CSF1R Kd; set-up: made in house
Outline: (§1)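 Kinases as T7-phage fusions or HEK-293-expressed DNA-tagged constructs competed against immobilized biotinylated ligand on streptavidin beads, 1 h at room temperature in binding buffer. Bound kinase eluted and quantified by qPCR; Kd from eleven-point threefold dilution series.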

M-NFS-60 cells = assay: M-NFS-60 cell proliferation assay (Alamar Blue); type: cell-based, mouse; settings: Mus musculus, read-out: CSF1R M-NFS-60 CTB:IC50
Outline: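 Mouse M-NFS-60 cells growing on 20 ng/mL M-CSF in RPMI/10% FBS were exposed to compounds (9 half-log concentrations, 0.5% DMSO) for 72 h at 37 °C. Viability read by Alamar Blue fluorescence (ex 560/em 590 nm, 3 h). IC50 = 50% proliferation inhibition versus control, mean of duplicates.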

FLT3 = biological target: T1, FLT3 (Homo sapiens, UniProt P36888); assay: Competition binding assay, FLT3 Kd
T1 construct: made in house
T1 sequence (P36888 27-993): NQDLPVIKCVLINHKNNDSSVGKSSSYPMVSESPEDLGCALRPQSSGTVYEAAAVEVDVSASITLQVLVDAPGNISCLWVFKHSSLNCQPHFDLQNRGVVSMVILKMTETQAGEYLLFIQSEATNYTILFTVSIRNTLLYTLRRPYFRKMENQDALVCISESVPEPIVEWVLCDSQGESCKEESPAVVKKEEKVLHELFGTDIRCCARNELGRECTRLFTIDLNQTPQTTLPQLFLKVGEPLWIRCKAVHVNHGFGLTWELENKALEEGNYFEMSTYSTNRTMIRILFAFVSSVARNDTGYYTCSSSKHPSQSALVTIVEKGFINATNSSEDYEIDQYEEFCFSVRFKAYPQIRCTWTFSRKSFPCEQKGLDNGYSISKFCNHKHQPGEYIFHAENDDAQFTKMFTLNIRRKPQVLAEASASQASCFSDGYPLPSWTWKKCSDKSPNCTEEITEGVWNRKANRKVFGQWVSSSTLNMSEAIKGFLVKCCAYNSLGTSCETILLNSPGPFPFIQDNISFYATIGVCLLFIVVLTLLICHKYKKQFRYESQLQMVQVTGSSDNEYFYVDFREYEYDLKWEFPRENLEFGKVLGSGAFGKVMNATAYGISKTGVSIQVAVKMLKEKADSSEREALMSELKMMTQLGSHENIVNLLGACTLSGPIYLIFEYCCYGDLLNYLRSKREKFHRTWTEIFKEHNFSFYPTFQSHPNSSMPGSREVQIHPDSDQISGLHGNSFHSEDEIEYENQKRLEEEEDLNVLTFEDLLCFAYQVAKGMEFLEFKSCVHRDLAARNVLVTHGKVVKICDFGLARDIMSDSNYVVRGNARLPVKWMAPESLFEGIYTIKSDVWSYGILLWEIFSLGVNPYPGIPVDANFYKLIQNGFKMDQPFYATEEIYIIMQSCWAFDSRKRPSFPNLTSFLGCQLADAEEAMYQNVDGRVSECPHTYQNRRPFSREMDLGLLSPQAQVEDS
Outline: as §1

KIT = biological target: T2, KIT (Homo sapiens, UniProt P10721); assay: Competition binding assay, KIT Kd
T2 construct: made in house
Outline: as §1

[1] = biological target: kinase panel containing either 386 or 392 distinct kinases; assay: Kinase selectivity score S10 from competition binding panel
Outline: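 Compounds at 10 μM competed against immobilised affinity ligands for T7 phage-fused or HEK-293-expressed DNA-tagged kinases, 1 h at room temperature; bound kinase eluted and quantified by qPCR. S10 = fraction of distinct non-mutant kinases with percent of DMSO control below 10.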

[2] = 72 hours incubation, M-CSF 20 ng/mL
[3] = compounds at 10 μM, 386 or 392 distinct kinases
[4] = 10 μM, panel of 386 or 392 distinct kinases

T2 sequence (P10721 26-976): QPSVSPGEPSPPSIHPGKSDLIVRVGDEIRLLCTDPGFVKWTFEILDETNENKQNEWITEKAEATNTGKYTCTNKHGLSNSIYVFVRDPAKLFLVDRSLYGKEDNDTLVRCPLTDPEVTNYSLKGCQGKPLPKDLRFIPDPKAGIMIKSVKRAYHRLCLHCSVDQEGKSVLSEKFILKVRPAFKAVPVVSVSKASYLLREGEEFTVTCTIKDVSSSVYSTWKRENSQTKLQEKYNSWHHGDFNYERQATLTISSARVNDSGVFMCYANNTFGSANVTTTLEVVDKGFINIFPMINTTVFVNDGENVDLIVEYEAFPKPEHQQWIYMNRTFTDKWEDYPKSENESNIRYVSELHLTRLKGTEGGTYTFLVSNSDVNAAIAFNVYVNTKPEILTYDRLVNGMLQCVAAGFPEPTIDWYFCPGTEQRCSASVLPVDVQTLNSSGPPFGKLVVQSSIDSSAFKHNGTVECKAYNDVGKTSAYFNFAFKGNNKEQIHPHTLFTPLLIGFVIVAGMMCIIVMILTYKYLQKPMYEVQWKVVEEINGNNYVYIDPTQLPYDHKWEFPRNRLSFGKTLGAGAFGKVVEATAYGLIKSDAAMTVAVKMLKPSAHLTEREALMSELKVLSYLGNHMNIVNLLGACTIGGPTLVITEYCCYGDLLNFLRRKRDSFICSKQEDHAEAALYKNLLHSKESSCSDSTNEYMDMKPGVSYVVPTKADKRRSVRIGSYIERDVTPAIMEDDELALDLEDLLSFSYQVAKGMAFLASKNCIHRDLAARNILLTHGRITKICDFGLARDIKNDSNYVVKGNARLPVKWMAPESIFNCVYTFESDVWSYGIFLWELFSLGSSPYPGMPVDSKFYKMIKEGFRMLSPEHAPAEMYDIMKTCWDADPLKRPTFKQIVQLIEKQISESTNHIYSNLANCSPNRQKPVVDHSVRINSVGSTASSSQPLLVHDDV
Chain of CSF1R (P07333 20-972): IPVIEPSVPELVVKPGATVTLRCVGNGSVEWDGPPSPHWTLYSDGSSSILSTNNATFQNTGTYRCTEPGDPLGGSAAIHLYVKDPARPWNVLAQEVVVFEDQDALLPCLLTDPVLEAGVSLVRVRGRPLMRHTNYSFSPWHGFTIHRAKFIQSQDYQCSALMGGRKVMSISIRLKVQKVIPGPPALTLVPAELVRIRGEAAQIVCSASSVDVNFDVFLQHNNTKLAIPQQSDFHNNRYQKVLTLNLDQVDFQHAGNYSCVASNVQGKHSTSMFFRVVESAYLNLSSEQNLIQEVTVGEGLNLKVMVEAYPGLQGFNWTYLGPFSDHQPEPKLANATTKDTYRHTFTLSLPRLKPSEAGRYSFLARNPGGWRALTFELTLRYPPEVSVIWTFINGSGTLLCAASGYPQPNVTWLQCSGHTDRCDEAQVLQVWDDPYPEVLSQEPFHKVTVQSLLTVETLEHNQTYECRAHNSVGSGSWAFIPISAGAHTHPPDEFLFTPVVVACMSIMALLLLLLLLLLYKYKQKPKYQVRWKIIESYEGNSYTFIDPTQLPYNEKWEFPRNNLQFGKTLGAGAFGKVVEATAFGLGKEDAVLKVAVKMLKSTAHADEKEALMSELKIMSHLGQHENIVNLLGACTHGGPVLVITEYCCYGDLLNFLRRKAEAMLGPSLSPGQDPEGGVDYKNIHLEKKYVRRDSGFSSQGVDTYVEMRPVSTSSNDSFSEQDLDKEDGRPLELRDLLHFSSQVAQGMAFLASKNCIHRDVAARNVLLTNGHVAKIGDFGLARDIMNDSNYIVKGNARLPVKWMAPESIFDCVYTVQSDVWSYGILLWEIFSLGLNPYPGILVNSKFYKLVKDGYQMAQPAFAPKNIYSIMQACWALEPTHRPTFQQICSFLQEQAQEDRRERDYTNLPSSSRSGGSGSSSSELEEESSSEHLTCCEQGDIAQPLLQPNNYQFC

Structure (SMILES) | Kd (CSF1R) [nM] | IC50 (M-NFS-60 cells; [2]) [nM] | Kd (FLT3) [nM] | Kd (KIT) [nM] | Kinase specificity S(10) [1, 3] | Kd (CSF1R; competition binding) [nM] | IC50 (M-NFS-60 cells; M-NFS-60 cell proliferation) [nM] | Kd (FLT3; competition binding) [nM] | Kd (KIT; competition binding) [nM] | Kinase specificity S(10) [1, 4]
O[C@@H]1CCCC[C@H]1Nc1nc2ccc(Cn3cnc4cc(N5CCOCC5)cnc43)cc2s1 [Example 97, (1R,2R)-2-((6-((6-morpholino-3H-imidazo[4,5-b]pyridin-3-yl)methyl)benzo[d]thiazol-2-yl)amino)cyclohexanol] | 5 to 20 | ≤ 50 | 200 to 1000 | ≤ 100 | B (0.01<B≤0.02) |  |  |  |  | 
C=Cc1cnc2c(c1)ncn2Cc1ccc2nc(N[C@@H]3CCCC[C@H]3O)sc2c1 [Example 98, (1R,2R)-2-((6-((6-vinyl-3H-imidazo[4,5-b]pyridin-3-yl)methyl)benzo[d]thiazol-2-yl)amino)cyclohexanol] | 5 to 20 | ≤ 50 | 200 to 1000 | ≤ 100 | B (0.01<B≤0.02) |  |  |  |  | 
CC(=O)NCc1cnc2c(c1)ncn2Cc1ccc2nc(N[C@@H]3CCCC[C@H]3O)sc2c1 [Example 99, N-((3-((2-(((1R,2R)-2-hydroxycyclohexyl)amino)benzo[d]thiazol-6-yl)methyl)-3H-imidazo[4,5-b]pyridin-6-yl)methyl)acetamide] | > 50 | > 1500 | 1000 to 5000 | > 2000 | A (A≤0.01) |  |  |  |  | 
O[C@@H]1CCCC[C@H]1Nc1nc2ccc(Cn3cnc4cc(Br)ccc43)cc2s1 [Example 100, (1R,2R)-2-((6-((5-bromo-1H-benzo[d]imidazol-1-yl)methyl)benzo[d]thiazol-2-yl)amino)cyclohexanol] | 5 to 20 | 50 to 400 | 1000 to 5000 | 100 to 500 | A (A≤0.01) |  |  |  |  | 
CC(=O)Nc1cn(Cc2ccc3nc(N[C@@H]4CCCC[C@H]4O)sc3c2)cn1 [Example 101, N-(1-((2-(((1R,2R)-2-hydroxycyclohexyl)amino)benzo[d]thiazol-6-yl)methyl)-1H-imidazol-4-yl)acetamide] | 20 to 50 | 50 to 400 | 200 to 1000 | 500 to 2000 | B (0.01<B≤0.02) |  |  |  |  | 
CCc1cnc2c(c1)ncn2Cc1ccc2nc(N[C@@H]3CCCC[C@H]3O)sc2c1 [Example 102, (1R,2R)-2-((6-((6-ethyl-3H-imidazo[4,5-b]pyridin-3-yl)methyl)benzo[d]thiazol-2-yl)amino)cyclohexanol] | 5 to 20 | ≤ 50 | 200 to 1000 | ≤ 100 | B (0.01<B≤0.02) |  |  |  |  | 
CS(=O)(=O)c1ccc2ncn(Cc3ccc4nc(N[C@@H]5CCCC[C@H]5O)sc4c3)c2n1 [Example 106, (1R,2R)-2-((6-((5-(methylsulfonyl)-3H-imidazo[4,5-b]pyridin-3-yl)methyl)benzo[d]thiazol-2-yl)amino)cyclohexanol] |  |  |  |  |  | 20 to 50 | > 1500 | 200 to 1000 | 500 to 2000 | A (A≤0.01)
O[C@@H]1CCCC[C@H]1Nc1nc2ccc(Cn3cnc4ccc(Br)cc43)cc2s1 [Example 107, (1R,2R)-2-((6-((6-bromo-1H-benzo[d]imidazol-1-yl)methyl)benzo[d]thiazol-2-yl)amino)cyclohexanol] |  |  |  |  |  | 5 to 20 | 50 to 400 | 1000 to 5000 | 100 to 500 | B (0.01<B≤0.02)
N#CCOc1ccc2c(c1)ncn2Cc1ccc2nc(N[C@@H]3CCCC[C@H]3O)sc2c1 [Example 196, 2-((1-((2-(((1R,2R)-2-hydroxycyclohexyl)amino)benzo[d]thiazol-6-yl)methyl)-1H-benzo[d]imidazol-5-yl)oxy)acetonitrile] |  |  |  |  |  | ≤ 5 | 50 to 400 | 200 to 1000 | 100 to 500 | A (A≤0.01)
Fc1cnc2c(c1)ncn2Cc1ccc2nc(N[C@@H]3CCCC[C@H]3Cl)sc2c1 [Example 198, N-((1R,2R)-2-chlorocyclohexyl)-6-((6-fluoro-3H-imidazo[4,5-b]pyridin-3-yl)methyl)benzo[d]thiazol-2-amine] |  |  |  |  |  | ≤ 5 | 50 to 400 | 1000 to 5000 | 100 to 500 | B (0.01<B≤0.02)
OC1CCN(c2ccn3c(Cc4ccc5nc(N[C@@H]6CCCC[C@H]6O)sc5c4)cnc3c2)CC1 [Example 199, 1-(3-((2-(((1R,2R)-2-hydroxycyclohexyl)amino)benzo[d]thiazol-6-yl)methyl)imidazo[1,2-a]pyridin-7-yl)piperidin-4-ol] |  |  |  |  |  | 5 to 20 | > 1500 | > 5000 | > 2000 | A (A≤0.01)
CC(=O)c1ccn2c(Cc3ccc4nc(N[C@@H]5CCCC[C@H]5O)sc4c3)cnc2c1 [Example 200, 1-(3-((2-(((1R,2R)-2-hydroxycyclohexyl)amino)benzo[d]thiazol-6-yl)methyl)imidazo[1,2-a]pyridin-7-yl)ethanone] |  |  |  |  |  | 5 to 20 | 50 to 400 | > 5000 | 500 to 2000 | A (A≤0.01)
CC(O)c1ccn2c(Cc3ccc4nc(N[C@@H]5CCCC[C@H]5O)sc4c3)cnc2c1 (stereo partly drawn) [Example 201, (1R,2R)-2-((6-((7-(1-hydroxyethyl)imidazo[1,2-a]pyridin-3-yl)methyl)benzo[d]thiazol-2-yl)amino)cyclohexanol] |  |  |  |  |  | 20 to 50 | > 1500 | 1000 to 5000 | 500 to 2000 | A (A≤0.01)
CC(=NO)c1ccn2c(Cc3ccc4nc(N[C@@H]5CCCC[C@H]5O)sc4c3)cnc2c1 [Example 202, 1-(3-((2-(((1R,2R)-2-hydroxycyclohexyl)amino)benzo[d]thiazol-6-yl)methyl)imidazo[1,2-a]pyridin-7-yl)ethanone oxime] |  |  |  |  |  | 5 to 20 | 50 to 400 | 1000 to 5000 | 100 to 500 | A (A≤0.01)
O[C@@H]1CCCC[C@H]1Nc1nc2ccc(Cn3cnc4cc(Br)cc(F)c43)cc2s1 [Example 203, (1R,2R)-2-((6-((5-bromo-7-fluoro-1H-benzo[d]imidazol-1-yl)methyl)benzo[d]thiazol-2-yl)amino)cyclohexanol] |  |  |  |  |  | 5 to 20 | 50 to 400 | 200 to 1000 | ≤ 100 | A (A≤0.01)
CON=C(C)c1ccn2c(Cc3ccc4nc(N[C@@H]5CCCC[C@H]5O)sc4c3)cnc2c1 [Example 204, 1-(3-((2-(((1R,2R)-2-hydroxycyclohexyl)amino)benzo[d]thiazol-6-yl)methyl)imidazo[1,2-a]pyridin-7-yl)ethanone O-methyl oxime] |  |  |  |  |  | 5 to 20 | 50 to 400 | 1000 to 5000 | 100 to 500 | A (A≤0.01)
O[C@@H]1CCCC[C@H]1Nc1nc2ccc(Cc3cnc4[nH]c5ccccc5n34)cc2s1 [Example 205, (1R,2R)-2-((6-((9H-benzo[d]imidazo[1,2-a]imidazol-3-yl)methyl)benzo[d]thiazol-2-yl)amino)cyclohexanol] |  |  |  |  |  | 5 to 20 | 400 to 1500 | 200 to 1000 | 500 to 2000 | B (0.01<B≤0.02)
N#Cc1cc(F)c2c(c1)ncn2Cc1ccc2nc(N[C@@H]3CCCC[C@H]3O)sc2c1 [Example 206, 7-fluoro-1-((2-(((1R,2R)-2-hydroxycyclohexyl)amino)benzo[d]thiazol-6-yl)methyl)-1H-benzo[d]imidazole-5-carbonitrile] |  |  |  |  |  | 5 to 20 | 50 to 400 | 200 to 1000 | 100 to 500 | A (A≤0.01)
